Results published in US6794396B2, “Substituted pyridines useful for inhibiting cholesteryl ester transfer protein activity” (Pharmacia Corporation, priority 1998, dated 2004).
Where two headings read alike, the source gives them in different places. Values belong to the compound of their own block, whether it stands above or below them.

Biological target: T1, CETP (Homo sapiens, UniProt P11597)
T1 construct: made in house; host or cells: CHO cells (serum-free conditioned medium)
T1 sequence (P11597 18-493): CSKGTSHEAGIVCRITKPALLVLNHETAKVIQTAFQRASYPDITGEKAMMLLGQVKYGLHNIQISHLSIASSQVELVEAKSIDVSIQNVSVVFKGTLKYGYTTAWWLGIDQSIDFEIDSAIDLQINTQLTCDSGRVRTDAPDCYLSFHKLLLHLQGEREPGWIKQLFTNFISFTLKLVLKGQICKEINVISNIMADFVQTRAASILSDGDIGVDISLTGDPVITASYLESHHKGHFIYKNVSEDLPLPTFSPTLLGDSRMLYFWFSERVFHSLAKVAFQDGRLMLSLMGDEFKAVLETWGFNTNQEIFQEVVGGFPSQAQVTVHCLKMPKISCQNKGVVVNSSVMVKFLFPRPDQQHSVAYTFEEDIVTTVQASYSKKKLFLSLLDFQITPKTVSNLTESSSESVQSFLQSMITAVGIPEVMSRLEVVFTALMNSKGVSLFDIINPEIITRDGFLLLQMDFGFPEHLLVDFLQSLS
Experiment: CETP activity in vitro: transfer of [3H]CE from HDL donor to LDL acceptor particles
Assay type: biochemical
Details: for remaining activity at 100 µM: 2 h, read-out: % Transfer @ 100 μm
Summary of the method: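 CETP from conditioned medium of CETP-transfected CHO cells incubated with [3H]CE-labelled HDL donor and LDL acceptor, pH 7.4 Tris buffer with NaCl, EDTA and 1% BSA, 2 h at 37 °C. LDL precipitated with dextran sulfate/MgCl2, filtered, and transferred radioactivity counted; IC50 reported.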

[1] = IC50(μm), 50% inhibition of [3H]CE transfer from HDL to LDL, 2 hours at 37° C.
[2] = Table 6, compounds of formula T-6, read-out: IC50
[3] = 50% inhibition of [3H]CE transfer from HDL to LDL, 2 hours at 37° C., read-out: IC50(μm)
[4] = IC50, Table 6, compounds of formula T-6
[5] = Table 7, compounds of formula T-7, read-out: IC50

SMILES: CCCCCCCCCCCCCCCC(=O)Sc1c(C(F)(F)F)nc(C(F)F)c(C(=O)OC)c1CC(C)C [Compound 5, Methyl 2-(Difluoromethyl)-4-(2-methylpropyl)-5-(palmitoylthio)-6-(trifluoromethyl)-3-pyridinecarboxylate]
IC50 [1]: 8 µM

SMILES: CCOP(=O)(OCC)C(=O)c1c(C(F)(F)F)nc(C(F)F)c(C(=O)OC)c1NC(C)C [Compound 85, Methyl 5-[(Diethoxyphosphinyl)carbonyl]-2-(difluoromethyl)-4-(1-methylethylamino)-6-(trifluoromethyl)-3-pyridinecarboxylate]
IC50 [3]: 90 µM

SMILES: COC(=O)c1c(C(F)F)nc(C(F)(F)F)c(C(=N)SC)c1CC1CC1 [Compound 112, Methyl 4-(Cyclopropylmethyl)-2-(difluoromethyl)-5-[imino(methylthio)methyl]-6-(trifluoromethyl)-3-pyridinecarboxylate]
remaining activity at 100 µM: 78%

SMILES: COC(=O)c1c(C(F)F)nc(C(F)(F)F)c(-n2cccc2)c1C1CCC1 [Compound 70, Methyl 2-(Difluoromethyl)-4-cyclobutyl-5-(1-pyrrolyl)-6-(trifluoromethyl)-3-pyridinecarboxylate]
IC50 [1]: 65 µM

SMILES: COC(=O)c1c(OCc2ccccc2)cc(C(F)(F)F)nc1C(F)(F)F [Compound 37, Methyl 2,6-bis(Trifluoromethyl)-4-(benzyloxy)-3-pyridinecarboxylate]
IC50 [3]: 45 µM

SMILES: COC(=O)c1c(C(F)F)nc(C(F)(F)F)c(CSc2ccc(OC(F)(F)F)cc2)c1CC(C)C [Compound 191]
IC50 [4]: 10 µM

SMILES: COC(=O)c1c(C(F)F)nc(C(F)(F)F)c(C(N)=S)c1C1CCC1 [Compound 119, Methyl 5-(aminothioxomethyl)-4-(cyclobutyl)-2-(difluoromethyl)-6-(trifluoromethyl)-3-pyridinecarboxylate]
remaining activity at 100 µM: 84%

SMILES: COC(=O)c1c(C(F)F)nc(C(F)(F)F)c(SC2CCCO2)c1CC(C)C (centres unmarked) [Compound 150, Methyl 2-(Difluoromethyl)-4-(2-methylpropyl)-5-[(tetrahydro-2-furyl)thio]-6-(trifluoromethyl)-3-pyridinecarboxylate]
% transfer at 10 μm (10 μm): 95^D %

SMILES: CCCc1c(C(=O)OC)c(C(F)F)nc(C(F)(F)F)c1C(=O)SCC [Compound 62]
IC50 [1]: 60 µM

SMILES: COC(=O)c1c(C(F)F)nc(C(F)(F)F)c(C(N)=S)c1CC(C)C [Compound 77, Methyl 2-(Difluoromethyl)-4-(2-methylpropyl)-5-(aminothionocarbonyl)-6-(trifluoromethyl) -3-pyridinecarboxylate]
IC50 [3]: 70 µM

SMILES: COC(=O)c1c(C(F)F)nc(C(F)(F)F)c(CSc2nnnn2C)c1CC(C)C [Compound 189, Methyl 5-[(1-Methyltetrazol-5-yl)thiomethyl]-2-(difluoromethyl)-4-(2-methylpropyl)-6-(trifluoromethyl)-3-pyridinecarboxylate]
CE transferred (@ 100 μm, footnotes A and B of Table 6): ^A90% CE transferred @ 100 μm. | IC50 [2]: > 100 µM

SMILES: CCOC(=O)c1c(C(F)(F)F)nc(C(F)F)c(C(=O)OC)c1S [Compound 2, 3-Methyl 5-Ethyl 2-(Difluoromethyl)-4-mercapto-6-(trifluoromethyl)-3,5-pyridinedicarboxylate]
IC50 [1]: 3 µM

SMILES: CCOC(=O)c1c(C(F)F)nc(C(F)(F)F)c(C(=O)OCC)c1C1CCCCC1 [Compound 38]
IC50 [1]: 50 µM

SMILES: COC(=O)c1c(C(F)F)nc(C(F)(F)F)c(CSc2ccc(Cl)cc2)c1CC(C)C [Compound 185, Methyl 5-[(4-Chlorophenyl)thiomethyl]-2-(difluoromethyl)-4-(2-methylpropyl)-6-(trifluoromethyl)-3-pyridinecarboxylate]
IC50 [4]: 10 µM

SMILES: COC(=O)c1c(C(F)F)nc(C(F)(F)F)c(NC(=O)c2sc(Cl)nc2C(F)(F)F)c1CC(C)C [Compound 117, Methyl {-[2-Chloro-4-(trifluoromethyl)-5-thiazolyl]carbonylamino}-2-(difluoromethyl)-4-(2-methylpropyl)-6-(trifluoromethyl)-3-pyridinecarboxylate]
remaining activity at 100 µM: 83%

SMILES: CCOC(=O)c1cnc(C(F)(F)F)c(OCC)c1O [Compound 114, Ethyl 5-Ethoxy-4-Hydroxy-6-(trifluoromethyl)-3-pyridinecarboxylate]
remaining activity at 100 µM: 81%

SMILES: CCOC(=O)c1c(C(F)F)nc(C(F)(F)F)c(C(=O)OCC)c1SC1CCCC1 [Compound 22, Diethyl 2-(Difluoromethyl)-4-(cyclopentylthio)-6-(trifluoromethyl)-3,5-pyridinedicarboxylate]
IC50 [3]: 40 µM

SMILES: COC(=O)c1c(C(F)F)nc(C(F)(F)F)c(CSc2c(C(F)(F)F)nc(C(F)F)c(C(=O)OC)c2CC(C)C)c1CC(C)C [Compound 182, Methyl 5-{[3-(Carbomethoxy)-2-(difluoromethyl)-4-isobutyl-6-(trifluoromethyl)-5-pyridyl]thiomethyl}-2-(difluoromethyl)-4-isobutyl-6-(trifluoromethyl)-3-pyridinecarboxylate]
IC50 (Table 5, compounds of formula T-5, read-out: IC50): 19 µM

SMILES: CCOC(=O)c1c(C(F)(F)F)nc(C(F)(F)F)c(C(=O)OC)c1OCC [Compound 52]
IC50 [3]: 50 µM

SMILES: COC(=O)c1c(C(F)(F)F)ncc(C(=O)c2cnc(C(F)(F)F)c(C(=O)OC)c2OC(C)C)c1OC(C)C [Compound 54]
IC50 [3]: 50 µM

The next lines start with the values.

IC50 (Table 8, read-out: IC50): 90 µM
SMILES: CCOC(=O)c1c(C(F)(F)F)nc(C(F)F)c(C(O)c2ccc(Cl)cc2)c1-c1ccccc1 (centres unmarked) [Compound 272]

IC50 (Table 8, read-out: IC50): 19 µM
SMILES: OCc1c(C(F)(F)F)nc(C(F)F)c(C(F)c2ccc(C(F)(F)F)cc2)c1-c1ccc(F)cc1 (centres unmarked) [Compound 253]

IC50 [2]: 20 µM
SMILES: COC(=O)c1c(C(F)F)nc(C(F)(F)F)c(CSc2c(F)c(F)c(C(F)(F)F)c(F)c2F)c1CC(C)C [Compound 196, Methyl 5-[(2,3,5,6-Tetrafluoro-4-(trifluoromethyl)phenyl)thiomethyl]-2-(difluoromethyl)-4-(2-methylpropyl)-6-(trifluoromethyl)-3-pyridinecarboxylate]

IC50 [5]: 60 µM
SMILES: COC(=O)c1c(C(F)F)nc(C(F)(F)F)c(SCc2ccc3c(c2Cl)OCO3)c1CC(C)C [Compound 226, Methyl 5-[(2-Chloro-3,4-methylenedioxyphenyl)methylthio]-2-(difluoromethyl)-4-(2-methylpropyl)-6-(trifluoromethyl)-3-pyridinecarboxylate]

IC50 (Table 8, read-out: IC50): 70 µM
SMILES: CCOC(=O)c1c(C(F)(F)F)nc(C(F)F)c(C(F)c2ccc3ccccc3c2)c1-c1ccccc1 (centres unmarked) [Compound 268]

IC50 (Table 8, read-out: IC50): 15 µM
SMILES: O=Cc1c(C(F)(F)F)nc(C(F)F)c(Cc2ccc3ccccc3c2)c1-c1ccccc1 [Compound 279]

IC50 (Table 8, read-out: IC50): > 100 µM
SMILES: OCc1c(C(F)F)nc(C(F)(F)F)c(C(O)c2ccc3ccccc3c2)c1-c1ccccc1 (centres unmarked) [Compound 270]

IC50 [2]: 30 µM
SMILES: COC(=O)c1c(C(F)F)nc(C(F)(F)F)c(CSc2c(F)c(F)c(F)c(F)c2F)c1CC(C)C [Compound 194, Methyl 5-[(Pentafluorophenyl)thiomethyl]-2-(difluoromethyl)-4-(2-methylpropyl)-6-(trifluoromethyl)-3-pyridinecarboxylate]

IC50 (Table 8, read-out: IC50): 19 µM
SMILES: CC(C)CC(O)c1c(C(F)F)nc(C(F)(F)F)c(C(=O)c2ccc(C(F)(F)F)cc2)c1-c1ccc(F)cc1 (centres unmarked) [Compound 288]

IC50 [5]: 20 µM
SMILES: COC(=O)c1c(C(F)F)nc(C(F)(F)F)c(SCc2ccc(Cl)cc2)c1CC(C)C [Compound 220]

IC50 [5]: 50 µM
SMILES: COC(=O)c1c(C(F)F)nc(C(F)(F)F)c(SCc2c(F)c(F)c(F)c(F)c2F)c1CC(C)C [Compound 244]

IC50 (Table 8, read-out: IC50): 70 µM
SMILES: CCOC(=O)c1c(C(F)(F)F)nc(C(F)F)c(C(F)c2ccc(Cl)cc2)c1-c1ccccc1 (centres unmarked) [Compound 267]

IC50 [2]: 50 µM
SMILES: COC(=O)c1c(C(F)F)nc(C(F)(F)F)c(CSc2ccccc2Br)c1CC(C)C [Compound 217, Methyl 5-[(2-bromophenyl)thiomethyl]-2-(difluoromethyl)-4-(2-methylpropyl)-6-(trifluoromethyl)-3-pyridinecarboxylate]

IC50 [5]: 30 µM
SMILES: COC(=O)c1c(C(F)F)nc(C(F)(F)F)c(SCc2ccc3c(c2)C(C)(C)CCC3(C)C)c1CC(C)C [Compound 245, Methyl 5-[(1,2,3,4-tetrahydro-1,1,4,4-tetramethyl-6-naphthyl)methylthio]-2-(difluoromethyl)-4-(2-methyl-propyl)-6-(trifluoromethyl)-3-pyridinecarboxylate]

IC50 [5]: 10 µM
SMILES: COC(=O)c1c(C(F)F)nc(C(F)(F)F)c(SCc2ccc(-c3ccccc3)cc2)c1CC(C)C [Compound 225]

IC50 [2]: 80 µM
SMILES: COC(=O)c1c(C(F)F)nc(C(F)(F)F)c(CSc2cccc3cccnc23)c1CC(C)C [Compound 202, Methyl 5-[(Quinolin-8-yl)thiomethyl]-2-(difluoromethyl)-4-(2-methylpropyl)-6-(trifluoromethyl)-3-pyridinecarboxylate]

IC50 (Table 8, read-out: IC50): 22.7 µM
SMILES: C=CC(O)c1c(C(F)F)nc(C(F)(F)F)c(C(=O)c2ccc(C(F)(F)F)cc2)c1-c1ccc(F)cc1 (centres unmarked) [Compound 284]
